Measured values as given in patent publication US10526316B2, “Quinoxaline and pyridopyrazine derivatives as PI3Kβ inhibitors” (Janssen Pharmaceutica NV, priority 2015, dated 2020).
Read-outs that look alike come from different tables or passages of the source.

Columns and labels:
PI3Kδ = molecular target: T1, PI3Kδ (Homo sapiens, UniProt O00329); test: Enzyme binding assay (KINOMEscan, DiscoveRx); conditions: PIK3Cδ_h
T1 construct: purchased DiscoveRx Corporation, San Diego (contract service, KINOMEscan)
T1 sequence (O00329 1-1044): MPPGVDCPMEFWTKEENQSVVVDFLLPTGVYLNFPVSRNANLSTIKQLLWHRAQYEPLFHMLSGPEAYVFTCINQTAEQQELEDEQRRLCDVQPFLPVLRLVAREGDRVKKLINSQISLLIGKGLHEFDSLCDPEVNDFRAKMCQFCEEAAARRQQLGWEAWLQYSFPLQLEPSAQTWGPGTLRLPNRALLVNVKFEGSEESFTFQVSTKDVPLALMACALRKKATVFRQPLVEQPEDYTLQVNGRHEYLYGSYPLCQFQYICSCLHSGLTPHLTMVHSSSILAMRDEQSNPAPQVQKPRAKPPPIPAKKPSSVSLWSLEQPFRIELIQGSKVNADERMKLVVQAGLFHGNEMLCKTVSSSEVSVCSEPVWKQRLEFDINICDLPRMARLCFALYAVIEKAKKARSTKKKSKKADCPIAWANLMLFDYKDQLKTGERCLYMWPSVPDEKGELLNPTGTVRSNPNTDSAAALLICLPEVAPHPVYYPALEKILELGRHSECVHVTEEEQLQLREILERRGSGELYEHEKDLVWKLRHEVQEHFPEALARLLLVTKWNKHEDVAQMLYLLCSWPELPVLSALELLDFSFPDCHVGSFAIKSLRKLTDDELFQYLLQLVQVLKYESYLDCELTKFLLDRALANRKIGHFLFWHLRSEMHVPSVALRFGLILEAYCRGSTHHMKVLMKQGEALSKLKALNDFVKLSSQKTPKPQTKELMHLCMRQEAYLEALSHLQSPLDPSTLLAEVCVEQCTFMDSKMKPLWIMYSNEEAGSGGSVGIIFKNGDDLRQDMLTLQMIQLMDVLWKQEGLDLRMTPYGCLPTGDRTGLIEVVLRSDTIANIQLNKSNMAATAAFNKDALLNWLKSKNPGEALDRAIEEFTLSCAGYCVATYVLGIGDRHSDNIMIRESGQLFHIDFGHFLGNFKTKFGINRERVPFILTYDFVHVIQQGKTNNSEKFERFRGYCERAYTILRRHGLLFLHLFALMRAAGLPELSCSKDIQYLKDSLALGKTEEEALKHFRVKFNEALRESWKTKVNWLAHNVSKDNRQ
Outline: (§1)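 Uses KINOMEscan technology to determine binding affinity toward the kinase enzymes.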

kinase enzymes [1] = molecular target: T2, kinase enzymes (Homo sapiens, UniProt P48736); test: Enzyme binding assay (KINOMEscan, DiscoveRx), further kinases of Table A; conditions: PIK3Cγ_h
T2 construct: purchased DiscoveRx Corporation, San Diego (contract service, KINOMEscan)
T2 sequence (P48736 whole entry): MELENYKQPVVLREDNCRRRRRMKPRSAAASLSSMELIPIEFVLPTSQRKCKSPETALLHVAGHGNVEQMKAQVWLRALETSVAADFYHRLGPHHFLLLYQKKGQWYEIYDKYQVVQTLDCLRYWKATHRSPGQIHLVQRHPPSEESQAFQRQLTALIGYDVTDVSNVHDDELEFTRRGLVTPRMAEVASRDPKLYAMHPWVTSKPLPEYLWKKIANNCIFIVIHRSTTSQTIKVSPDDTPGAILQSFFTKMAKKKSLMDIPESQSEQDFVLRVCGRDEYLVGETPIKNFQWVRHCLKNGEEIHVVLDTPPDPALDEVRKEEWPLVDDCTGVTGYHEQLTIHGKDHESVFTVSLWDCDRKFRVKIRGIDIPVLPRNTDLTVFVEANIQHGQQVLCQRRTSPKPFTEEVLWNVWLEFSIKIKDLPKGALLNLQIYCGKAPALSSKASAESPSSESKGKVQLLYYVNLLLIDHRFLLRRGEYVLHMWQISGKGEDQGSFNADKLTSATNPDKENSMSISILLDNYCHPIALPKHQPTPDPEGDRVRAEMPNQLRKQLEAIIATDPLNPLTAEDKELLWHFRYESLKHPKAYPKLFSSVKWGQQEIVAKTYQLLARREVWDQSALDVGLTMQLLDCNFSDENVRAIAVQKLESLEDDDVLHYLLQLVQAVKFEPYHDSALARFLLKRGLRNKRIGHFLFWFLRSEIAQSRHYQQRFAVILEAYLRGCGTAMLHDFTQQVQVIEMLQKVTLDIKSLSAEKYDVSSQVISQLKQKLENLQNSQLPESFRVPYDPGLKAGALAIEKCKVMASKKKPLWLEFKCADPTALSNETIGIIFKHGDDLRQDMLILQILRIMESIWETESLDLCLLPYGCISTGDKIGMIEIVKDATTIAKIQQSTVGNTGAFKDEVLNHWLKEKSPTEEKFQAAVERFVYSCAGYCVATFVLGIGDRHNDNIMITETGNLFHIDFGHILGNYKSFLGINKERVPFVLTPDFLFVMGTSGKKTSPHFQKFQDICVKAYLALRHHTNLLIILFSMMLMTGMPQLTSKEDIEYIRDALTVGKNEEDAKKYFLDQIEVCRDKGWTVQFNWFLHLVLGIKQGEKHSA
Outline: as §1

kinase enzymes [2] = molecular target: T3, kinase enzymes (Homo sapiens, UniProt P42336); test: as above; conditions: PIK3Cα_h
T3 construct: purchased DiscoveRx Corporation, San Diego (contract service, KINOMEscan)
T3 sequence (P42336 whole entry): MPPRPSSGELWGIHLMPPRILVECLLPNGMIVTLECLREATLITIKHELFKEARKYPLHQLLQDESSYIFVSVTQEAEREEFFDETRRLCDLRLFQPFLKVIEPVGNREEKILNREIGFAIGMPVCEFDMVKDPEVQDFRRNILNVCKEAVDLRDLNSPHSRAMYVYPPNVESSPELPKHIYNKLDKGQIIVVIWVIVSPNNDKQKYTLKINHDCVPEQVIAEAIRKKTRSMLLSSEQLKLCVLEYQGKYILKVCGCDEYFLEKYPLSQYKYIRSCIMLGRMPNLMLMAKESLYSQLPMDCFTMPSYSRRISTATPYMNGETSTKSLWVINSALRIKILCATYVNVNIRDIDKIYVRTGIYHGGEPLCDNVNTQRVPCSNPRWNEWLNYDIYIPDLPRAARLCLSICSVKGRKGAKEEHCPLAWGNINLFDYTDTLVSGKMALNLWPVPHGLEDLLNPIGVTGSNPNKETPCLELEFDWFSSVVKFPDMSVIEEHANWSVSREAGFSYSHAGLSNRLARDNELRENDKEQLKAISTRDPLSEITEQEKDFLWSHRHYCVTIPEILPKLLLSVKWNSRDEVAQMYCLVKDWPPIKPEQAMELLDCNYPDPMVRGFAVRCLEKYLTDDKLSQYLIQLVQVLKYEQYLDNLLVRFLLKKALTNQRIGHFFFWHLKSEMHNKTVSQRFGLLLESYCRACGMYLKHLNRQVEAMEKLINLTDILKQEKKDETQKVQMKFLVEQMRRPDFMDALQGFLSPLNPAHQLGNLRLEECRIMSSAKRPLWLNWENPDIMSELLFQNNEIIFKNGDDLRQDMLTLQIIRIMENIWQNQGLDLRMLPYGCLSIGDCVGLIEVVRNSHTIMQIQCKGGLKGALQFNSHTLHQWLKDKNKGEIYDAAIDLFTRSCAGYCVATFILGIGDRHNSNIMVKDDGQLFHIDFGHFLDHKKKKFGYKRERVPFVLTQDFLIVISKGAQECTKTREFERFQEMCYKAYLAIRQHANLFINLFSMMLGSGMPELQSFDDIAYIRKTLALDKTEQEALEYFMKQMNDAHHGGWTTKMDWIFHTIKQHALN
Outline: as §1

kinase enzymes [3] = molecular target: T4, kinase enzymes (Homo sapiens, UniProt P42345); test: as above; conditions: MTOR_h
T4 construct: purchased DiscoveRx Corporation, San Diego (contract service, KINOMEscan)
Outline: as §1

PI3Kβ = molecular target: T5, PI3Kβ (Homo sapiens, UniProt P42338); test: Enzyme binding assay (KINOMEscan, DiscoveRx); conditions: PIK3Cβ_h, read-out: Kd PIK3Cβ_h
T5 construct: purchased DiscoveRx Corporation, San Diego (contract service, KINOMEscan)
T5 sequence (P42338 whole entry): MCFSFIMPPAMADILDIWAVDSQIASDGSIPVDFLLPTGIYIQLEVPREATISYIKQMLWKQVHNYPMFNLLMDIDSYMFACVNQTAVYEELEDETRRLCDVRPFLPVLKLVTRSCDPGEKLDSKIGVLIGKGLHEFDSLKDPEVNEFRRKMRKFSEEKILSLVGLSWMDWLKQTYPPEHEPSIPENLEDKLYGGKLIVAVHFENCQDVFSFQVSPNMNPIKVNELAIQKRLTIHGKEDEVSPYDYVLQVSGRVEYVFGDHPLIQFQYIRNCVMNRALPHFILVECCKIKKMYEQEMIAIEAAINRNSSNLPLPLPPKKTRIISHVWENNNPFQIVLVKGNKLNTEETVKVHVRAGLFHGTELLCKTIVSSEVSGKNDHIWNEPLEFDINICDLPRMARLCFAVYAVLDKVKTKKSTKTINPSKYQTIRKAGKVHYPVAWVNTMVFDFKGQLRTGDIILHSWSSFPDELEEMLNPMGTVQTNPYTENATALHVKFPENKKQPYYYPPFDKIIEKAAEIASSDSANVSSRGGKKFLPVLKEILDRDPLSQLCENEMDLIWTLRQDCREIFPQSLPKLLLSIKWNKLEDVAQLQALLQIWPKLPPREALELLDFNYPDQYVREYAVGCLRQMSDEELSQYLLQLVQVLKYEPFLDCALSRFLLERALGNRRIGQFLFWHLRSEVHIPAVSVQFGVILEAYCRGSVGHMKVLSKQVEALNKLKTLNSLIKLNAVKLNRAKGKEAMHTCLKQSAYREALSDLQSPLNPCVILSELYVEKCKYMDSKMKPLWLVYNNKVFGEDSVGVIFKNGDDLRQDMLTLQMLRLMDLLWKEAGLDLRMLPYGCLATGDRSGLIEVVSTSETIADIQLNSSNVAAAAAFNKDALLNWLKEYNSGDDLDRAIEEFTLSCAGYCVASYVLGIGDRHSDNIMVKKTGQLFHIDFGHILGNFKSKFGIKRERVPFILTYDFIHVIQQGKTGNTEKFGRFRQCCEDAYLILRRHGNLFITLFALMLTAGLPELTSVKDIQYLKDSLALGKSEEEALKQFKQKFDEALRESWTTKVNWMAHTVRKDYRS
Outline: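 Using the KINOMEscan format, the enzyme binding affinity of each compound was determined. Each value is the inhibitor binding constant, Kd (nM).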

[4] = tested on: Akt phosphorylated at Thr308 in PC-3 cells; test: Cellular assay: phosphorylation of Akt at Thr308 in PC-3 cells (MSD ELISA); type: cell-based; conditions: read-out: IC50 pAkt_Thr308
Outline: (§2)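 After lysis of treated cells (60 min, 37° C, 0.3% DMSO), phospho-Akt levels were measured by MSD electrochemiluminescence ELISA. Potency was derived from concentration-response curves fitted over five concentrations.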

[5] = tested on: Akt phosphorylated at Ser473 in PC-3 cells; test: Cellular assay: phosphorylation of Akt at Ser473 in PC-3 cells (MSD ELISA); type: cell-based; conditions: read-out: IC50 pAkt_S473
Outline: as §2

[6] = PC-3 cells, 60 min compound incubation, MSD ELISA
[7] = Homo sapiens, PC-3, 1 h, PC-3 cells, 60 min compound incubation, MSD ELISA

| melting point | Kd (PI3Kδ) | Kd (kinase enzymes [1]) | Kd (kinase enzymes [2]) | Kd (kinase enzymes [3]) | Kd (PI3Kβ) | IC50 [4, 6] | IC50 [5, 6] | IC50 ([4]; Homo sapiens, PC-3, 1 h) | IC50 ([5]; Homo sapiens, PC-3, 1 h) | IC50 [4, 7] | IC50 [5, 7] | SMILES |
| --- | --- | --- | --- | --- | --- | --- | --- | --- | --- | --- | --- | --- |
| 80 °C | 2190 nM | > 30200 nM | 18600 nM | > 30200 nM | 117 nM |  |  |  |  |  |  | CC(Oc1ccc(F)c(F)c1)c1cc(C(=O)N2CCN3CCC[C@@H]3C2)cc2ncc(N3CCOCC3)nc12 (mixture of isomers) [Compound 375] |
| 327 °C | 324 nM |  | 1660 nM | > 30200 nM | 2 nM | 31 nM | 66 nM |  |  |  |  | CC(Nc1cccc(F)c1)c1cc(C(=O)N2CCC[C@H]2CO)cc2ncc(N3CCOCC3)nc12 (single isomer, unassigned) [Compound 115] |
| 115 °C | > 30200 nM | > 30200 nM | > 30200 nM | > 30200 nM | 2400 nM |  |  |  |  |  |  | CC(Oc1cc(F)cc(F)c1)c1cc(C(=O)NCCO)cc2ncc(N3CCOCC3)nc12 (single isomer, unassigned) [Compound 200] |
| 75 °C | > 30200 nM | 6170 nM | > 30200 nM | > 30200 nM | 16600 nM |  |  |  |  |  |  | CC(Nc1cc(F)cc(F)c1)c1cc(C(=O)NC[C@H](C)O)cc2ncc(N3CCOCC3)nc12 (single isomer, unassigned) [Compound 246b] |
| 199.7 °C | 24500 nM | > 30200 nM | > 30200 nM | > 30200 nM | 1780 nM |  |  |  |  |  |  | COC(=O)c1cc(C(C)Nc2cccc(F)c2)c2nc(N3CCOCC3)cnc2c1 (single isomer, unassigned) [Compound 262a] |
| 199.5 °C | > 30200 nM | > 30200 nM | > 30200 nM | > 30200 nM | 11500 nM |  |  |  |  |  |  | COC(=O)c1cc(C(C)Nc2cccc(F)c2)c2nc(N3CCOCC3)cnc2c1 (single isomer, unassigned) [Compound 262b] |
| 170 °C | 18200 nM | 29500 nM | > 30200 nM | > 30200 nM | 1380 nM |  |  |  |  |  |  | CC(C)NCCNC(=O)c1cc(C(C)Nc2cc(F)c(F)c(F)c2)c2nc(N3CCOCC3)cnc2c1 (single isomer, unassigned) [Compound 283b] |
| 136 °C | 5130 nM | > 30200 nM | 11500 nM | > 30200 nM | 69 nM |  |  |  |  |  |  | CC(Nc1cccc(F)c1)c1cc(C(=O)N2CCC[C@H](O)C2)cc2ncc(N3CCOCC3)nc12 (single isomer, unassigned) [Compound 320b] |
| 128 °C | 7410 nM | > 30200 nM | 18600 nM | > 30200 nM | 166 nM |  |  |  |  |  |  | CC(Nc1cccc(F)c1)c1cc(C(=O)N2CC[C@@H](O)C2)cc2ncc(N3CCOCC3)nc12 (single isomer, unassigned) [Compound 321b] |
| 115 °C | 724 nM | 7940 nM | 2040 nM | 10500 nM | 7 nM |  |  |  |  |  |  | Cc1ccc(NC(C)c2cc(C(=O)NCCN(C)C)cc3ncc(N4CCOCC4)nc23)cc1F (single isomer, unassigned) [Compound 407a] |
| 105 °C | 2950 nM | 3800 nM | 4370 nM | > 30200 nM | 339 nM |  |  |  |  |  |  | Cc1ccc(NC(C)c2cc(C(=O)NCCN(C)C)cc3ncc(N4CCOCC4)nc23)cc1F (single isomer, unassigned) [Compound 407b] |
| 127 °C | 331 nM | 4270 nM | 1440 nM | 26300 nM | 3 nM |  |  |  |  |  |  | [2H]C([2H])(O)C([2H])([2H])NC(=O)c1cc(C(C)Nc2cccc(F)c2)c2nc(N3CCOCC3)cnc2c1 (single isomer, unassigned) [Compound 408a] |
| 123 °C | 17400 nM | 8130 nM | 23400 nM | > 30200 nM | 324 nM |  |  |  |  |  |  | [2H]C([2H])(O)C([2H])([2H])NC(=O)c1cc(C(C)Nc2cccc(F)c2)c2nc(N3CCOCC3)cnc2c1 (single isomer, unassigned) [Compound 408b] |
| 80 °C | 1 nM |  |  |  | 0.1 nM |  |  | 0.3 nM | 1 nM |  |  | CNCCN(C)C(=O)c1cc(C2CCCN2c2cc(F)cc(F)c2)c2nc(N3CCOCC3)cnc2c1 (centres unmarked) [Compound 18] |
| 80 °C | 1820 nM | 1480 nM | 6030 nM |  | 16 nM |  |  |  |  | 162 nM | 389 nM | CC(c1cc(CO)cc2ncc(N3CCOCC3)nc12)N(C)c1cccc(F)c1 (centres unmarked) [Compound 111] |
| 237 °C | 10200 nM | 2850 nM | 14200 nM |  | 204 nM |  |  |  |  | > 513 nM | > 513 nM | C[C@H](Nc1cccc(F)c1)c1cc(C(=O)NCCO)cc2ncc(N3CCOCC3)nc12 [Compound 118] |
| 145 °C |  | 1740 nM | 2510 nM |  | 0.1 nM |  |  |  |  | 3 nM | 6 nM | CC(Nc1cc(F)cc(F)c1)c1cc(C(=O)NCCN(C)C)cc2ncc(N3CCOCC3)nc12 (centres unmarked) [Compound 183] |
| 152 °C |  | 4270 nM | 5750 nM |  | 29 nM |  |  |  |  | 148 nM | ~331 nM | C[C@H](Nc1cc(F)cc(F)c1)c1cc(C(=O)NCCN(C)C)cc2ncc(N3CCOCC3)nc12 [Compound 185] |
| 220 °C |  |  |  |  |  |  |  |  |  |  |  | COC(=O)c1cc(C(C)Nc2cc(F)c(F)c(F)c2)c2nc(N3CCOCC3)cnc2c1 (centres unmarked) [Compound 266] |
| 186 °C | > 30200 nM | > 30200 nM | > 30200 nM | > 30200 nM | > 30200 nM |  |  |  |  |  |  | COC(=O)c1cc(C(C)Nc2ccc(C)c(F)c2)c2nc(N3CCOCC3)cnc2c1 (centres unmarked) [Compound 293] |
| 144 °C | 11500 nM | 14100 nM | 10700 nM | > 30200 nM | 1320 nM |  |  |  |  |  |  | CC(Nc1ccc(F)c(F)c1)c1cc(C(=O)NC2CCNC2)cc2ncc(N3CCOCC3)nc12 (centres unmarked) [Compound 325a] |
| 98 °C |  |  |  |  |  |  |  |  |  | 9 nM | 9 nM | Cc1c(F)cccc1NCc1cc(C(=O)NCCN(C)C)cc2ncc(N3CCOCC3)nc12 [Compound 328] |
| 80 °C | 2820 nM | 14100 nM | 3980 nM | 20400 nM | 21 nM |  |  |  |  |  |  | CCOC(=O)CNC(=O)c1cc(C(C)Nc2cccc(F)c2)c2nc(N3CCOCC3)cnc2c1 (centres unmarked) [Compound 392a] |

| SMILES | melting point | Kd (PI3Kδ) | Kd (kinase enzymes [1]) | Kd (kinase enzymes [2]) | Kd (kinase enzymes [3]) | Kd (PI3Kβ) | IC50 [4, 6] | IC50 [5, 6] | IC50 ([4]; Homo sapiens, PC-3, 1 h) | IC50 ([5]; Homo sapiens, PC-3, 1 h) | IC50 [4, 7] | IC50 [5, 7] |
| --- | --- | --- | --- | --- | --- | --- | --- | --- | --- | --- | --- | --- |
| CN(C)C(=O)c1cc(C2CCCN2c2cc(F)cc(F)c2)c2nc(N3CCOCC3)cnc2c1 (centres unmarked) [Compound 26] | 80 °C | 117 nM | 1320 nM | 174 nM |  | 2 nM |  |  |  |  | ~1.35 nM | 4 nM |
| C[C@@H](Nc1cc(F)cc(F)c1)c1cc(C(=O)NCCN(C)C)cc2ncc(N3CCOCC3)nc12 [Compound 184] | 157 °C |  | 994 nM | 599 nM | 18900 nM | 0.2 nM |  |  |  |  | 2 nM | 2 nM |
